Tests used:
Settings in all cases: 48 h
P12-Ichikawa [1] = test: cell viability relative to DMSO control; higher = less cytotoxic
Method in brief: (§1)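 In 1536-well plates, 5 μl of leukemia cells were seeded per well: 500 cells/well for NOMO1 or SEM and 1000 cells/well for P12-Ichikawa. Each line had first been adapted for at least four passages in each medium. Library compounds in DMSO were pin-dosed at 11 threefold concentrations between 47 μM and 0.79 nM, and CellTiter-Glo One luminescence was read after 48 h at 37°C. Viability is a per-plate percentage relative to DMSO wells, with cell-free wells as background.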

NOMO1 [2] = test: as above
Method in brief: as §1

SEM cells [3] = test: as above
Method in brief: as §1

P12-Ichikawa [4] = test: AUC of viability dose-response curve (% viability x log10 dose units); higher = less sensitive
Method in brief: (§2)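 Library compounds in DMSO were applied for 48 h at 37°C at 11 threefold doses (47 μM to 0.79 nM) to medium-adapted leukemia cells in 1536-well plates holding 500 or 1000 cells/well. Luminescence from CellTiter-Glo One was normalised plate by plate against DMSO and cell-free wells. Area under the curve came from trapezoidal integration of a log-logistic fit, after scaling curves that rose above full viability and discarding those that failed quality control. The fit had four parameters and used log10 doses.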

NOMO1 [5] = test: as above
Method in brief: as §2

SEM cells [6] = test: as above
Method in brief: as §2

CCN1CCN(C(=O)Cc2ccc(Nc3ncc(F)c(Nc4ccc(C(=O)Nc5ccccc5Cl)cc4)n3)cc2)CC1
cell viability [%]
Settings | NOMO1 [2] | P12-Ichikawa [1] | SEM cells [3]
HPLM + 10% dialyzed FBS, 0.000781 µM | 93.9 | 107 | 79.1
HPLM + 10% dialyzed FBS, 0.00234 µM | 119 | 105 | 90.8
HPLM + 10% dialyzed FBS, 0.00702 µM | 112 | 108 | 97.2
HPLM + 10% dialyzed FBS, 0.0211 µM | 115 | 108 | 111
HPLM + 10% dialyzed FBS, 0.0632 µM | 112 | 116 | 109
HPLM + 10% dialyzed FBS, 0.19 µM | 114 | 118 | 107
HPLM + 10% dialyzed FBS, 0.569 µM | 109 | 116 | 108
HPLM + 10% dialyzed FBS, 1.71 µM | 109 | 107 | 83.1
HPLM + 10% dialyzed FBS, 5.12 µM | 62.6 | 60.1 | 61.2
HPLM + 10% dialyzed FBS, 15.4 µM | 62.4 | 48.1 | 33.6
HPLM + 10% dialyzed FBS, 46.1 µM | 49.1 | 26.2 | 27.6
RPMI 5 mM glucose + 10% FBS, 0.000781 µM | 99.6 | 105 | 81.8
RPMI 5 mM glucose + 10% FBS, 0.00234 µM | 98.1 | 108 | 108
RPMI 5 mM glucose + 10% FBS, 0.00702 µM | 98 | 112 | 103
RPMI 5 mM glucose + 10% FBS, 0.0211 µM | 92.7 | 111 | 108
RPMI 5 mM glucose + 10% FBS, 0.0632 µM | 111 | 115 | 118
RPMI 5 mM glucose + 10% FBS, 0.19 µM | 121 | 122 | 105
RPMI 5 mM glucose + 10% FBS, 0.569 µM | 101 | 111 | 101
RPMI 5 mM glucose + 10% FBS, 1.71 µM | 90.7 | 114 | 82.4
RPMI 5 mM glucose + 10% FBS, 5.12 µM | 81.2 | 73.2 | 58.8
RPMI 5 mM glucose + 10% FBS, 15.4 µM | 47.1 | 50.9 | 11.5
RPMI 5 mM glucose + 10% FBS, 46.1 µM | 59.4 | 41 | 8.62
RPMI 5 mM glucose + 10% dialyzed FBS, 0.000781 µM | 97.5 | 119 | 80.4
RPMI 5 mM glucose + 10% dialyzed FBS, 0.00234 µM | 109 | 111 | 89.3
RPMI 5 mM glucose + 10% dialyzed FBS, 0.00702 µM | 104 | 112 | 111
RPMI 5 mM glucose + 10% dialyzed FBS, 0.0211 µM | 117 | 125 | 97.6
RPMI 5 mM glucose + 10% dialyzed FBS, 0.0632 µM | 107 | 131 | 116
RPMI 5 mM glucose + 10% dialyzed FBS, 0.19 µM | 103 | 121 | 118
RPMI 5 mM glucose + 10% dialyzed FBS, 0.569 µM | 114 | 107 | 101
RPMI 5 mM glucose + 10% dialyzed FBS, 1.71 µM | 103 | 107 | 81.6
RPMI 5 mM glucose + 10% dialyzed FBS, 5.12 µM | 64.9 | 79.2 | 54.4
RPMI 5 mM glucose + 10% dialyzed FBS, 15.4 µM | 55.8 | 52.6 | 19.1
RPMI 5 mM glucose + 10% dialyzed FBS, 46.1 µM | 49 | 45.6 | 14.6

AUC of viability dose-response curve
Settings | NOMO1 [5] | P12-Ichikawa [4] | SEM cells [6]
HPLM + 10% dialyzed FBS | 420 | 405 | 402
RPMI 5 mM glucose + 10% FBS | 430 | 418 | 383
RPMI 5 mM glucose + 10% dialyzed FBS | 420 | 413 | 386

CN1CCN(CCCN2c3ccccc3Sc3ccc(C(F)(F)F)cc32)CC1
cell viability [%]
Settings | NOMO1 [2] | P12-Ichikawa [1] | SEM cells [3]
HPLM + 10% dialyzed FBS, 0.000781 µM | 105 | 100 | 74.1
HPLM + 10% dialyzed FBS, 0.00234 µM | 106 | 105 | 85.4
HPLM + 10% dialyzed FBS, 0.00702 µM | 112 | 105 | 88.1
HPLM + 10% dialyzed FBS, 0.0211 µM | 117 | 108 | 103
HPLM + 10% dialyzed FBS, 0.0632 µM | 108 | 106 | 97.3
HPLM + 10% dialyzed FBS, 0.19 µM | 115 | 111 | 101
HPLM + 10% dialyzed FBS, 0.569 µM | 125 | 117 | 106
HPLM + 10% dialyzed FBS, 1.71 µM | 95.4 | 119 | 105
HPLM + 10% dialyzed FBS, 5.12 µM | 32.9 | 111 | 107
HPLM + 10% dialyzed FBS, 15.4 µM | 20.6 | 42 | 102
HPLM + 10% dialyzed FBS, 46.1 µM | 24.2 | 12.4 | 106
RPMI 5 mM glucose + 10% FBS, 0.000781 µM | 100 | 101 | 83.1
RPMI 5 mM glucose + 10% FBS, 0.00234 µM | 104 | 108 | 91.4
RPMI 5 mM glucose + 10% FBS, 0.00702 µM | 108 | 109 | 90.7
RPMI 5 mM glucose + 10% FBS, 0.0211 µM | 101 | 109 | 93.9
RPMI 5 mM glucose + 10% FBS, 0.0632 µM | 96.2 | 119 | 94.4
RPMI 5 mM glucose + 10% FBS, 0.19 µM | 98.5 | 119 | 100
RPMI 5 mM glucose + 10% FBS, 0.569 µM | 106 | 113 | 101
RPMI 5 mM glucose + 10% FBS, 1.71 µM | 61.5 | 116 | 99.4
RPMI 5 mM glucose + 10% FBS, 5.12 µM | 18.7 | 112 | 98.6
RPMI 5 mM glucose + 10% FBS, 15.4 µM | 16.7 | 34.1 | 105
RPMI 5 mM glucose + 10% FBS, 46.1 µM | 11.3 | 13.8 | 101
RPMI 5 mM glucose + 10% dialyzed FBS, 0.000781 µM | 99.6 | 94.8 | 90.6
RPMI 5 mM glucose + 10% dialyzed FBS, 0.00234 µM | 107 | 105 | 94.2
RPMI 5 mM glucose + 10% dialyzed FBS, 0.00702 µM | 105 | 99.6 | 89.9
RPMI 5 mM glucose + 10% dialyzed FBS, 0.0211 µM | 108 | 104 | 94.4
RPMI 5 mM glucose + 10% dialyzed FBS, 0.0632 µM | 119 | 106 | 102
RPMI 5 mM glucose + 10% dialyzed FBS, 0.19 µM | 113 | 105 | 102
RPMI 5 mM glucose + 10% dialyzed FBS, 0.569 µM | 103 | 112 | 92.7
RPMI 5 mM glucose + 10% dialyzed FBS, 1.71 µM | 104 | 123 | 104
RPMI 5 mM glucose + 10% dialyzed FBS, 5.12 µM | 27.2 | 115 | 107
RPMI 5 mM glucose + 10% dialyzed FBS, 15.4 µM | 25.6 | 93.8 | 112
RPMI 5 mM glucose + 10% dialyzed FBS, 46.1 µM | 21 | 39.4 | 86.8

AUC of viability dose-response curve
Settings | NOMO1 [5] | P12-Ichikawa [4] | SEM cells [6]
HPLM + 10% dialyzed FBS | 379 | 426 | 447
RPMI 5 mM glucose + 10% FBS | 357 | 423 | 451
RPMI 5 mM glucose + 10% dialyzed FBS | 384 | 456 | 463

— the supplement of paper PMC11451515
